The results in this text go back to article PMC10682951, “Structure-function and rational design of a spider toxin Ssp1a at human voltage-gated sodium channel subtypes” (Frontiers in Pharmacology, 2023).

SMILES strings stand for the structures. Bridge positions count the residues as written; N and C are the ends. Peptide text beside a SMILES is read from it.

What all share (assay type): cell-based
The target in one experiment is T1, hNaV1.2 (Homo sapiens, UniProt Q99250).
T1 construct: host or cells: HEK293
T1 sequence (Q07699 19-218): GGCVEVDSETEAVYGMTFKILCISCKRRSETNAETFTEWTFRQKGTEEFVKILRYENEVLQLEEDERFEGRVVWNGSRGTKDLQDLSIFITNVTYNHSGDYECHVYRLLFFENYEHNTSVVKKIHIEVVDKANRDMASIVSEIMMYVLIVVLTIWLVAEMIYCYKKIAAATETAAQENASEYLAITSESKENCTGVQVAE
T1 sequence (Q99250 whole entry): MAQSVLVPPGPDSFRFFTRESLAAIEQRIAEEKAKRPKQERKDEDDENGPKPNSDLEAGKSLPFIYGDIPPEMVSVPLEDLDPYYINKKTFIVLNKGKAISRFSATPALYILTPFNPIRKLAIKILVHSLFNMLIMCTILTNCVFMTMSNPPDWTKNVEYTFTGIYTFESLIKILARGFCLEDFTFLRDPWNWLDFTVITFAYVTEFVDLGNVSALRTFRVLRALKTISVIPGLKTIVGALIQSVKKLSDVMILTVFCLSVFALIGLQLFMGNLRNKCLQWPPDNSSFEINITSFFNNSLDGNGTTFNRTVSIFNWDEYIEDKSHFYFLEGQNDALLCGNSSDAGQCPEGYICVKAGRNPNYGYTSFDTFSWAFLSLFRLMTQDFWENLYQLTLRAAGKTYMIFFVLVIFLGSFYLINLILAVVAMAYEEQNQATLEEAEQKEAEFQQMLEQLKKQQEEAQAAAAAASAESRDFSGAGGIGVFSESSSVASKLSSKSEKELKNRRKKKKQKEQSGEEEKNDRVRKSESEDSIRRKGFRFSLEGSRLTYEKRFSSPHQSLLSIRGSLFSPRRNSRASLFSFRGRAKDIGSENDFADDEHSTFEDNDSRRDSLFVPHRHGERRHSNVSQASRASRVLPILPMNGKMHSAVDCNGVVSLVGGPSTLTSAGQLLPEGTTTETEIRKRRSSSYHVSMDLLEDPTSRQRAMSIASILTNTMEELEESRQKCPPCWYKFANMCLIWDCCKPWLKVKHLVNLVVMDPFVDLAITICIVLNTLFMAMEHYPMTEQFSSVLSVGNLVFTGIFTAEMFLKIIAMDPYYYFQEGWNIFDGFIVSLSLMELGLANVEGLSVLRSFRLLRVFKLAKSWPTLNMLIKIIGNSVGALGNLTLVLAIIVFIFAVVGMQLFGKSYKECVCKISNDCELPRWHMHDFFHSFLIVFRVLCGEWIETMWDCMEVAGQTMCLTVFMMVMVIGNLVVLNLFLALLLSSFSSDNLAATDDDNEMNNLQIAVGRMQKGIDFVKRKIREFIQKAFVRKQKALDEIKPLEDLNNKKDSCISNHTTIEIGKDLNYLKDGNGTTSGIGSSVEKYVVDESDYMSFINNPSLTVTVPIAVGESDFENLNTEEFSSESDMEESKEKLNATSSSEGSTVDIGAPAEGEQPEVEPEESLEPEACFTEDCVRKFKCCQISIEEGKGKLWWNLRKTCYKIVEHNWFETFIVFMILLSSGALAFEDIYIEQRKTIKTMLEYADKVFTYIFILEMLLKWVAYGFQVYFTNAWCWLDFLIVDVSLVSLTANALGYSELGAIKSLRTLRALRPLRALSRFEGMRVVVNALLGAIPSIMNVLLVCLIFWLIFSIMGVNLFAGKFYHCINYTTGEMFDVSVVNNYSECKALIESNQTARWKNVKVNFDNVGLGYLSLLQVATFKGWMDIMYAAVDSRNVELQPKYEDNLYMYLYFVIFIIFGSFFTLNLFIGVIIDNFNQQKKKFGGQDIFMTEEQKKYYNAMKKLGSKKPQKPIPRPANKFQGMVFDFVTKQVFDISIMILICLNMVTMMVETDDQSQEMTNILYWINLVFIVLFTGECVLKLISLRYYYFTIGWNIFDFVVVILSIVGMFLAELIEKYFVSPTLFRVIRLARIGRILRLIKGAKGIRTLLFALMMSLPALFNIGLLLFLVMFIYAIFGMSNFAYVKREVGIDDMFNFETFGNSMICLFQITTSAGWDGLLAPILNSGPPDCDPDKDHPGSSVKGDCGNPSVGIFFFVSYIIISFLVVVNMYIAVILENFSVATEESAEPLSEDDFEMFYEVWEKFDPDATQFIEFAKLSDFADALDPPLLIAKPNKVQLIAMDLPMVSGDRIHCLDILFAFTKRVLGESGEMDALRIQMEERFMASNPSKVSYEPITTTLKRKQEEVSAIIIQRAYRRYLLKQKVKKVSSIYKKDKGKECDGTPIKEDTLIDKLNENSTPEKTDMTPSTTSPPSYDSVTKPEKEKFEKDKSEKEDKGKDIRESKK
Nature of the experiment: Automated whole-cell patch-clamp (QPatch 16X), hNaV1.2. The settings on record: for IC50: HEK293 cells expressing hNaV1.2 + β1 subunit, QPatch 16X, holding −80 mV, step to 0 mV, peptide incubated 2 min, 0.1% BSA, mean, SEM and n (2-7). The method, then:
(§1) Human embryonic kidney 293 (HEK293) cells stably expressing recombinant hNaV1.2, hNaV1.3 and hNaV1.7 and the β1 auxiliary subunit (Scottish Biomedical Drug Discovery, Glasgow, UK) were cultured in Minimal Essential medium (MEM) (Sigma-Aldrich, MO, United States) supplemented with 10% v/v FBS-New Zealand origin (Assay Matrix), 2 mM L-glutamine and selection antibiotics as per manufacturer’s recommendation. The HEK293 cells heterologously expressing mNaV1.7 and F813G-mNaV1.7 were generously provided by Prof Irina Vetter and were cultured in Minimal Essential medium (MEM) (Sigma-Aldrich, MO, United States) supplemented with 10% v/v FBS-New Zealand origin (Assay Matrix), 2 mM L-glutamine and hygromycin 100 μg/mL.
(§2) NaV channel currents from HEK293 cells stably expressing NaV subtypes and the β1 auxiliary subunit were recorded using an automated whole-cell patch clamp system QPatch 16X (Sophion Bioscience A/S, Ballerup, Denmark). As per the manufacturer’s guidelines, the cells were cultured for 48 h to achieve ∼80% confluency, detached using Detachin (Genlantis) and resuspended to 5 × 10^6 cells/mL in serum free media [CHO-cell SFM (Life Technologies), 25 mM HEPES and 100 U/mL penicillin/streptomycin]. The extracellular solution comprised (in mM) 1 CaCl2, 1 MgCl2, 5 HEPES, 3 KCl, 140 NaCl and 20 TEA-Cl, with the pH adjusted to 7.3 with NaOH. The intracellular solution comprised (in mM) 140 CsF, 1 EGTA, 5 CsOH, 10 HEPES and 10 NaCl, with the pH adjusted to 7.3 with CsOH. The osmolarity of both solutions were adjusted to 320 mOsm with sucrose. Compounds were prepared in extracellular solution containing 0.1% bovine serum albumin (Sigma-Aldrich). To obtain the dose-response curves, cells were maintained at a holding potential −80 mV and Na^+ currents were elicited by […] voltage steps to 0 mV from a −120 mV conditioning pulse applied for […]. Increasing concentrations of the peptide were incubated with the cells at the holding potential for 2 min before the voltage protocol was applied.
(§3) The experimental data were analysed using QPatch Assay software v5.6.4 and GraphPad Prism 7.0 using a four-parameter Hill equation [Y = Bottom + (Top—Bottom)/(1 + 10^(Log IC50—X)* Hillslope)] to fit concentration response curves by non-linear regression analysis and Student’s t-test. Data are presented as means ± standard error of mean (SEM) with number of independent experiments stated and p < 0.05 is considered statistically significant. Statistically insignificant shift in the activity is denoted by “little” while small but statistically significant shift in the activity is denoted by “slight” throughout the manuscript.

In the next experiment the target is T2, hNaV1.3 (Homo sapiens, UniProt Q9NY46).
T2 construct: host or cells: HEK293
T2 sequence (Q9NY46 whole entry): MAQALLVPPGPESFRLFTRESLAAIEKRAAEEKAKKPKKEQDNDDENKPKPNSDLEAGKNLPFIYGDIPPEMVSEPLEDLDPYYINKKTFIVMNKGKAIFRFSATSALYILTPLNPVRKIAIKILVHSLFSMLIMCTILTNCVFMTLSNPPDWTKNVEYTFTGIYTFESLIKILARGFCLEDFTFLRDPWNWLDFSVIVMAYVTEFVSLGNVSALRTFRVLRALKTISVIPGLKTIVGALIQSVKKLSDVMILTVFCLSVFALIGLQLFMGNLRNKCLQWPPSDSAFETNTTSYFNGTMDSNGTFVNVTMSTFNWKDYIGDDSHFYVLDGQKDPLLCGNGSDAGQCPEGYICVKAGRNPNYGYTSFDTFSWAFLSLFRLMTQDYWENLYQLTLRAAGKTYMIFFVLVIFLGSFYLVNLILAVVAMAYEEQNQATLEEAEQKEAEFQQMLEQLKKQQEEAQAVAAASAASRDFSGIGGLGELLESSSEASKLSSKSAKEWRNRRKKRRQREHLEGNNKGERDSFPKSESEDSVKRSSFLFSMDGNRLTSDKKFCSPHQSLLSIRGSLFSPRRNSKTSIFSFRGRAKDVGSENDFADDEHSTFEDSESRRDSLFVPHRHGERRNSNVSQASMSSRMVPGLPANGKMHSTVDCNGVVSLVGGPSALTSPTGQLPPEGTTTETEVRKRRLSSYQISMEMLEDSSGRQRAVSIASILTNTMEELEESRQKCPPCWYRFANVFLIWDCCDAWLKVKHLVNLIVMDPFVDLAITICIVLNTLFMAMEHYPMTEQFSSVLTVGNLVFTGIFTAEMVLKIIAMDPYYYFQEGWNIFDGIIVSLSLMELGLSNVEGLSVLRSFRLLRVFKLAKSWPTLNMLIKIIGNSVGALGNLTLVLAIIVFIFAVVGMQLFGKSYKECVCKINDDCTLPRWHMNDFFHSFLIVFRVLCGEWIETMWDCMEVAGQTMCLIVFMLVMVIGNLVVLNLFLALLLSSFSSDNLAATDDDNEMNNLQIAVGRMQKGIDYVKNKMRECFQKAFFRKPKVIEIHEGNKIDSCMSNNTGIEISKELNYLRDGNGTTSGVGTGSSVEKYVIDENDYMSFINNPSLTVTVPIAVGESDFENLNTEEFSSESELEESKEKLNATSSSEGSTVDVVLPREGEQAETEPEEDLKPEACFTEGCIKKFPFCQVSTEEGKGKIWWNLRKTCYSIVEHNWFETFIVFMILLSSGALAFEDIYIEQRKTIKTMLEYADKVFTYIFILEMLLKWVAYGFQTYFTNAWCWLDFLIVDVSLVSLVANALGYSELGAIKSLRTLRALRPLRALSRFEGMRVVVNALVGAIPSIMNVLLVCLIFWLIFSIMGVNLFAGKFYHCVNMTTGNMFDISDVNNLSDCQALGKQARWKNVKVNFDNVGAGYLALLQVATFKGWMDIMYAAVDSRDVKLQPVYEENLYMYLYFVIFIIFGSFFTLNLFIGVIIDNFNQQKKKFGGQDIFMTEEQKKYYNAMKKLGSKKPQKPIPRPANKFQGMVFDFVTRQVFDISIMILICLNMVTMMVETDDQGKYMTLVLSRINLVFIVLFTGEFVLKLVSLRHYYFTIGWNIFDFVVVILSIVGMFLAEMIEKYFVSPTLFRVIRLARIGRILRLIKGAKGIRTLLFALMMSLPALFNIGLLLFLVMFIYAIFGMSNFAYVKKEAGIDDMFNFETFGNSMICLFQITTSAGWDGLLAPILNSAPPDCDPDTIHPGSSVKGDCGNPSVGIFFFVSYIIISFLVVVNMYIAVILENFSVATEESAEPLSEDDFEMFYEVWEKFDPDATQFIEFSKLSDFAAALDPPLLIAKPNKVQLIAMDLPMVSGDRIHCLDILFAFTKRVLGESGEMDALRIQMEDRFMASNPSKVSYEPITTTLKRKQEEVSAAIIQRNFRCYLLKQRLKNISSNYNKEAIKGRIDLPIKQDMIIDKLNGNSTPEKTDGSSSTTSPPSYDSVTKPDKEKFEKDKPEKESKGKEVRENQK
T2 sequence (Q07699 19-218, further chain): as the sequence (Q07699 19-218) above
Nature of the experiment: Automated whole-cell patch-clamp (QPatch 16X), hNaV1.3. The settings on record: HEK293 cells expressing hNaV1.3 + β1 subunit; QPatch 16X; holding −80 mV, step to 0 mV; peptide incubated 2 min; 0.1% BSA; mean, SEM and n (3-12). The method, then: as §1, §2, §3

For another experiment, the target named is T3, hNaV1.7 (Homo sapiens, UniProt Q15858).
T3 construct: host or cells: HEK293
Nature of the experiment: Automated whole-cell patch-clamp (QPatch 16X), hNaV1.7. As to conditions: for IC50: HEK293 cells expressing hNaV1.7 + β1 subunit, QPatch 16X, holding −80 mV, step to 0 mV, peptide incubated 2 min, 0.1% BSA, mean, SEM and n (3-9). The method, then: as §1, §2, §3

For the compound `CC(C)C[C@H](NC(=O)[C@H](Cc1ccc(O)cc1)NC(=O)[C@H](Cc1ccc(O)cc1)NC(=O)[C@H](CCCNC(=N)N)NC(=O)[C@@H]1CSSC[C@@H]2NC(=O)[C@H](CCCCN)NC(=O)[C@H](CC(N)=O)NC(=O)[C@H](CC(N)=O)NC(=O)[C@H](CC(N)=O)NC(=O)[C@@H]3CCCN3C(=O)[C@H](CC(=O)O)NC(=O)[C@@H]3CSSC[C@H](NC(=O)[C@H](C(C)C)NC(=O)[C@H](Cc4ccc(O)cc4)NC(=O)CNC(=O)[C@H](CCC(=O)O)NC(=O)[C@H](CSSC[C@H](NC(=O)[C@H](CC(=O)O)NC(=O)CN)C(=O)N[C@@H](CC(C)C)C(=O)NCC(=O)N[C@@H](Cc4c[nH]c5ccccc45)C(=O)N[C@@H](Cc4ccccc4)C(=O)N[C@@H](CO)C(=O)NCC(=O)N3)NC2=O)C(=O)N[C@@H](Cc2c[nH]cn2)C(=O)N[C@@H](Cc2c[nH]c3ccccc23)C(=O)N[C@@H](CCCCN)C(=O)N[C@@H](Cc2ccc(O)cc2)C(=O)N2CCC[C@H]2C(=O)N[C@@H](Cc2c[nH]c3ccccc23)C(=O)N1)C(=O)O` [D32Y], the values for the IC50 at hNaV1.2, on hNaV1.3 and at hNaV1.7 were 75 nM, 417 nM and 110 nM, respectively. In addition, the “hNaV1.2-selectivity against hNaV1.3” value at hNaV1.2 (ratio of potencies hNaV1.3 / hNaV1.2) is recorded as around 6 fold.
`CC(C)C[C@H](NC(=O)[C@H](CC(=O)O)NC(=O)[C@H](Cc1ccc(O)cc1)NC(=O)[C@H](CCCNC(=N)N)NC(=O)[C@@H]1CSSC[C@@H]2NC(=O)[C@H](CCCCN)NC(=O)[C@H](CC(N)=O)NC(=O)[C@H](CC(N)=O)NC(=O)[C@H](CC(N)=O)NC(=O)[C@@H]3CCCN3C(=O)[C@H](CC(=O)O)NC(=O)[C@@H]3CSSC[C@H](NC(=O)[C@H](C(C)C)NC(=O)[C@H](Cc4ccc(O)cc4)NC(=O)CNC(=O)[C@H](CCC(=O)O)NC(=O)[C@H](CSSC[C@H](NC(=O)[C@H](CC(=O)O)NC(=O)CN)C(=O)N[C@@H](CC(C)C)C(=O)NCC(=O)N[C@@H](Cc4c[nH]c5ccccc45)C(=O)N[C@@H](Cc4ccccc4)C(=O)N[C@@H](CCCNC(=N)N)C(=O)NCC(=O)N3)NC2=O)C(=O)N[C@@H](Cc2c[nH]cn2)C(=O)N[C@@H](Cc2c[nH]c3ccccc23)C(=O)N[C@@H](CCCCN)C(=O)N[C@@H](Cc2ccc(O)cc2)C(=O)N2CCC[C@H]2C(=O)N[C@@H](Cc2c[nH]c3ccccc23)C(=O)N1)C(=O)O` [S7R]: the IC50 at hNaV1.2 worked out at 153 nM; on hNaV1.3, 333 nM; at hNaV1.7 it was 94 nM.
Consider `CC(C)C[C@H](NC(=O)[C@H](Cc1ccc(O)cc1)NC(=O)[C@H](Cc1ccc(O)cc1)NC(=O)[C@H](CCCNC(=N)N)NC(=O)[C@@H]1CSSC[C@@H]2NC(=O)[C@H](CCCCN)NC(=O)[C@H](CC(N)=O)NC(=O)[C@H](CC(N)=O)NC(=O)[C@H](CC(N)=O)NC(=O)[C@@H]3CCCN3C(=O)[C@H](CC(=O)O)NC(=O)[C@@H]3CSSC[C@H](NC(=O)[C@H](C(C)C)NC(=O)[C@H](Cc4ccc(O)cc4)NC(=O)CNC(=O)[C@H](CCC(=O)O)NC(=O)[C@H](CSSC[C@H](NC(=O)CNC(=O)CN)C(=O)N[C@@H](CC(C)C)C(=O)NCC(=O)N[C@@H](Cc4c[nH]c5ccccc45)C(=O)N[C@@H](Cc4ccccc4)C(=O)N[C@@H](CO)C(=O)NCC(=O)N3)NC2=O)C(=O)N[C@@H](Cc2c[nH]cn2)C(=O)N[C@@H](Cc2c[nH]c3ccccc23)C(=O)N[C@@H](CCCCN)C(=O)N[C@@H](Cc2ccc(O)cc2)C(=O)N2CCC[C@H]2C(=O)N[C@@H](Cc2c[nH]c3ccccc23)C(=O)N1)C(=O)O` [D1G/D32Y] (H-GGCLGWFSGCDPNNNKCCEGYVCHWKYPWCRYYL-OH; disulfide 3-18, 10-23, 17-30), for which the IC50 was 86 nM on hNaV1.2, 111 nM at hNaV1.3 and 91 nM at hNaV1.7.
In the case of `CC(C)C[C@H](NC(=O)[C@H](CC(=O)O)NC(=O)[C@H](Cc1ccc(O)cc1)NC(=O)[C@H](CCCNC(=N)N)NC(=O)[C@@H]1CSSC[C@@H]2NC(=O)[C@H](CCCCN)NC(=O)[C@H](CC(N)=O)NC(=O)[C@H](CC(N)=O)NC(=O)[C@H](CC(N)=O)NC(=O)[C@@H]3CCCN3C(=O)[C@H](CC(=O)O)NC(=O)[C@@H]3CSSC[C@H](NC(=O)[C@H](C(C)C)NC(=O)[C@H](Cc4ccc(O)cc4)NC(=O)CNC(=O)[C@H](CCC(=O)O)NC(=O)[C@H](CSSC[C@H](NC(=O)[C@H](CCCCN)NC(=O)CN)C(=O)N[C@@H](CC(C)C)C(=O)NCC(=O)N[C@@H](Cc4c[nH]c5ccccc45)C(=O)N[C@@H](Cc4ccccc4)C(=O)N[C@@H](CO)C(=O)NCC(=O)N3)NC2=O)C(=O)N[C@@H](Cc2c[nH]cn2)C(=O)N[C@@H](Cc2c[nH]c3ccccc23)C(=O)N[C@@H](CCCCN)C(=O)N[C@@H](Cc2ccc(O)cc2)C(=O)N2CCC[C@H]2C(=O)N[C@@H](Cc2c[nH]c3ccccc23)C(=O)N1)C(=O)O` [D1K], the values for the IC50 on hNaV1.2, at hNaV1.3 and at hNaV1.7 were 97 nM, 196 nM and 240 nM, respectively.
For `CC(C)C[C@H](NC(=O)[C@H](CC(=O)O)NC(=O)[C@H](Cc1ccc(O)cc1)NC(=O)[C@H](CCCNC(=N)N)NC(=O)[C@@H]1CSSC[C@@H]2NC(=O)[C@H](CCCCN)NC(=O)[C@H](CC(N)=O)NC(=O)[C@H](CC(N)=O)NC(=O)[C@H](CC(N)=O)NC(=O)[C@@H]3CCCN3C(=O)[C@H](CC(=O)O)NC(=O)[C@@H]3CSSC[C@H](NC(=O)[C@H](C(C)C)NC(=O)[C@H](Cc4ccc(O)cc4)NC(=O)CNC(=O)CNC(=O)[C@H](CSSC[C@H](NC(=O)[C@H](CC(=O)O)NC(=O)CN)C(=O)N[C@@H](CC(C)C)C(=O)NCC(=O)N[C@@H](Cc4c[nH]c5ccccc45)C(=O)N[C@@H](Cc4ccccc4)C(=O)N[C@@H](CO)C(=O)NCC(=O)N3)NC2=O)C(=O)N[C@@H](Cc2c[nH]cn2)C(=O)N[C@@H](Cc2c[nH]c3ccccc23)C(=O)N[C@@H](CCCCN)C(=O)N[C@@H](Cc2ccc(O)cc2)C(=O)N2CCC[C@H]2C(=O)N[C@@H](Cc2c[nH]c3ccccc23)C(=O)N1)C(=O)O` [E18G], the results for the IC50 on hNaV1.2, at hNaV1.3 and at hNaV1.7 were 119 nM, 406 nM and 276 nM, respectively.
With `CC(C)C[C@H](NC(=O)[C@H](CC(=O)O)NC(=O)[C@H](Cc1ccc(O)cc1)NC(=O)[C@H](CCCNC(=N)N)NC(=O)[C@@H]1CSSC[C@@H]2NC(=O)[C@H](CCCCN)NC(=O)[C@H](CC(N)=O)NC(=O)[C@H](CC(N)=O)NC(=O)[C@H](CC(N)=O)NC(=O)[C@@H]3CCCN3C(=O)[C@H](CC(=O)O)NC(=O)[C@@H]3CSSC[C@H](NC(=O)[C@H](C(C)C)NC(=O)[C@H](Cc4ccc(O)cc4)NC(=O)CNC(=O)[C@H](CCC(=O)O)NC(=O)[C@H](CSSC[C@H](NC(=O)[C@H](CC(=O)O)NC(=O)CN)C(=O)N[C@@H](CC(C)C)C(=O)NCC(=O)N[C@@H](Cc4c[nH]c5ccccc45)C(=O)N[C@@H](C)C(=O)N[C@@H](CO)C(=O)NCC(=O)N3)NC2=O)C(=O)N[C@@H](Cc2c[nH]cn2)C(=O)N[C@@H](Cc2c[nH]c3ccccc23)C(=O)N[C@@H](CCCCN)C(=O)N[C@@H](Cc2ccc(O)cc2)C(=O)N2CCC[C@H]2C(=O)N[C@@H](Cc2c[nH]c3ccccc23)C(=O)N1)C(=O)O` [F6A] (H-GDCLGWASGCDPNNNKCCEGYVCHWKYPWCRYDL-OH; disulfide 3-18, 10-23, 17-30 (inferred); N-terminus and C-terminus assumed), the IC50 at hNaV1.2, at hNaV1.3 and at hNaV1.7 was above 1000 nM each time. The “Loss (reduction) in potency vs rSsp1a at hNaV1.2” value on hNaV1.2 (relative to wild type rSsp1a) is at least 10 fold. For the same compound, the “Loss (reduction) in potency vs rSsp1a at hNaV1.7” value at hNaV1.7 (relative to wild type rSsp1a) is listed as at least 10 fold.
